This passage reports GI50 and TGI results from PubChem BioAssay (NCI).

What is called GI50 is the concentration at which growth is held to half of that of the control. What is called TGI is the concentration giving total growth inhibition. Read a low TGI as more potent growth arrest.

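Each compound was tested at five concentrations against cells in 96-well plates for 48 hours. The concentration for 50% growth inhibition is given as GI50. TGI denotes the concentration required for complete inhibition of growth.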

Common to all, as to assay: DTP human tumour cell line panel, 48 h
For assay [1], the system named is ACHN renal.
The subject of assay [2] is COLO 205 colon.
Assay [3] has as its system HOP-92 NSCLC.
Assay [4] has as its system RXF 393 renal.
Assay [5] deals with SF-268 CNS.
Assay [6] deals with SF-539 CNS.
In assay [7] the test system is SN12C renal.
For assay [8], the system named is SW-620 colon.
In assay [9] the test system is TK-10 renal.
For assay [10], the system named is U251 CNS.

As for `CC(C)N(C(C)C)[PH+]1O[PH+](N(C(C)C)C(C)C)O[PH+](N(C(C)C)C(C)C)O[PH+](N(C(C)C)C(C)C)O[PH+](N(C(C)C)C(C)C)O1.[C-]#[O+].[C-]#[O+].[C-]#[O+].[C-]#[O+].[C-]#[O+].[C-]#[O+].[C-]#[O+].[Cr].[Cr]` (stereo not given), the GI50 in assay [1], in assay [2], in assay [3], in assay [4], in assay [5] and in [6] was greater than 100 µM each time. The GI50 in [7], in assay [8], in [9] and in [10] was greater than 100 µM throughout. For the same compound, the total growth inhibition concentration (TGI) in assay [1], in assay [2], in assay [3], in assay [4], in assay [5] and in assay [6] was greater than 100 µM each time. For the same compound, the total growth inhibition concentration (TGI) in assay [7], in assay [8], in [9] and in assay [10] was greater than 100 µM each time.
In the case of `CC1(C)CCC(C)(C)c2cc(C(=O)Nc3ccc(C(=O)O)cc3)ccc21`, the TGI was greater than 61.2 µM in assay [1]; 36 µM in [2]; greater than 100 µM in assay [3]; greater than 42 µM in [4]; greater than 87.4 µM in assay [5]; 30.3 µM in assay [6]. Moreover, the total growth inhibition concentration (TGI) in [7] is greater than 100 µM; in assay [8] it was greater than 100 µM; in assay [9], greater than 73.3 µM; in assay [10], greater than 100 µM.
For `CC1(C)O[C@H]2OC3CCC(=O)CC3(O)[C@H]2O1` (stereo not given in full), the TGI in [1], in assay [2], in assay [3], in assay [4], in assay [5] and in [6] was greater than 100 µM each time. The TGI in assay [7], in [8], in assay [9] and in assay [10] was greater than 100 µM in each case.
`Cc1ccc(C(=O)Nc2ccc(CN3CCN(C)CC3)c(C(F)(F)F)c2)cc1C#Cc1cnc(N)c2ccc(F)cc12`: the concentration for 50% growth inhibition (GI50) in [1] is 0.0791 µM; in assay [2] it was 0.301 µM; in assay [3] it was 0.18 µM; in [4] it was 0.218 µM; in assay [5] it was 0.259 µM; in assay [6] it was 0.527 µM. In addition, the GI50 in [7] is 0.0793 µM; in assay [8], 0.251 µM; in assay [9], 0.416 µM; in [10] it was 0.275 µM. Also, the TGI was determined as 0.401 µM in assay [1]; 0.933 µM in [2]; 0.944 µM in [3]; 0.579 µM in assay [4]; 1.88 µM in [5]; 1.24 µM in assay [6]. Moreover, the concentration for total growth inhibition (TGI) was found to be 0.73 µM in [7], 0.638 µM in assay [8], 2.72 µM in [9] and 0.717 µM in assay [10].
In the case of `Cc1nc2c(n1CC(C)(C)C)C(=O)c1ccccc1C2=O`, the total growth inhibition concentration (TGI) in assay [1], in [2], in [3], in assay [4], in [5] and in assay [6] was greater than 100 µM each time. Further, the total growth inhibition concentration (TGI) in assay [7], in assay [8], in assay [9] and in [10] was greater than 100 µM each time.
For the compound `O=C(C(=O)c1ccc(Cc2ccc(C(=O)C(=O)c3ccccc3)cc2)cc1)c1ccccc1`, the TGI in [1], in assay [2], in assay [3], in [4], in assay [5] and in assay [6] was greater than 100 µM in each case. For the same compound, the TGI in assay [7], in assay [8], in [9] and in assay [10] was greater than 100 µM each time.
Turning to `CC1(C)N=C(N)N=C(N)N1c1ccc(CCc2ccccc2)c(Cl)c1`, the GI50 in assay [1] is 1.97 µM; in assay [2], 0.0694 µM; in assay [3], 1.14 µM; in assay [4], 0.829 µM; in assay [5] it was 0.0552 µM; in [6], 0.131 µM. Further, the GI50 in assay [7] is 0.0883 µM; in [8], 0.0388 µM; in assay [9] it was 1.96 µM; in assay [10], 0.0427 µM. For the same compound, the TGI in [1] was greater than 100 µM; in [2], 6.83 µM; in assay [3], 9.51 µM; in assay [4], 17.6 µM; in assay [5] it was 14.3 µM; in [6] it was 12.4 µM. The TGI was found to be 13 µM in [7], 13.8 µM in assay [8], 18.3 µM in assay [9] and 13 µM in assay [10].
Turning to `CNC(=O)Nc1ccc(-c2nc(N3CCOCC3)nc3c2cnn3C2CCOCC2)cc1`, the 50% growth inhibitory concentration (GI50) in assay [1] is 0.225 µM; in assay [2] it was 0.247 µM; in assay [3], 0.0371 µM; in [4], 0.14 µM; in [5], 0.284 µM; in [6], 0.205 µM. The GI50 in [7] is 0.213 µM; in assay [8], 0.332 µM; in assay [9], 0.172 µM; in [10], 0.258 µM. For the same compound, the total growth inhibition concentration (TGI) in assay [1] was 1.74 µM; in assay [2], greater than 100 µM; in [3], 0.526 µM; in assay [4] it was 0.812 µM; in assay [5] it was greater than 51.3 µM; in assay [6] it was 1.36 µM. Also, the TGI is greater than 100 µM in [7], greater than 100 µM in [8], 1.47 µM in [9] and greater than 38.6 µM in [10].
As to `COC(=O)c1nc(NN)[nH]c(=O)c1CCCCCc1c(C(=O)OC)[nH]c(NN)cc1=O`, the TGI in assay [1], in assay [2], in assay [3], in [4], in assay [5] and in assay [6] was greater than 100 µM in each case. Moreover, the TGI in [7], in assay [8], in assay [9] and in assay [10] was greater than 100 µM in each case.
